Experimental data taken from the supplement of paper PMC13380429.

Assays:
[1] = tested on: A549-ACE2 infected with SARS-CoV-2; assay: cell count relative to DMSO; higher = less toxic; details: 24 h
Vero E6 [2] = assay: relative viability EC50 (midpoint between 100% and the lowest measured viability); higher = less toxic; details: 72 h
HepG2 [3] = assay: as above; details: 72 h
Calu-3 [4] = assay: as above; details: 72 h
A549-ACE2 [5] = assay: drug-induced phospholipidosis relative to tamoxifen; higher = more phospholipidosis
Caco-2 [6] = assay: drug sensitivity score (DSS) for viability; higher = more toxic; extreme values may be limits of the assay; details: 72 h
Vero E6 [7] = assay: as above; details: 72 h
U2OS [8] = assay: as above; details: 72 h
HepG2 [9] = assay: as above; details: 72 h
Calu-3 [10] = assay: as above; details: 72 h
[11] = tested on: A549-ACE2 infected with SARS-CoV-2; assay: morphology score (similarity to uninfected cells); higher = more like uninfected cells; details: 24 h
[12] = tested on: A549-ACE2 infected with SARS-CoV-2; assay: SARS-CoV-2 infection rate relative to DMSO; higher = more infection; details: 24 h
A549-ACE2 [13] = assay: phospholipidosis EC50; higher = less potent phospholipidosis inducer
Caco-2 [14] = assay: cell viability relative to DMSO; higher = less toxic; details: 72 h
Vero E6 [15] = assay: as above; details: 72 h
U2OS [16] = assay: as above; details: 72 h
HepG2 [17] = assay: as above; details: 72 h
Calu-3 [18] = assay: as above; details: 72 h
Caco-2 [19] = assay: relative viability EC50 (midpoint between 100% and the lowest measured viability); higher = less toxic; details: 72 h
U2OS [20] = assay: as above; details: 72 h

OC(c1cc(C(F)(F)F)nc2c(C(F)(F)F)cccc12)C1CCCCN1 (centres undefined) [mefloquine]
Details	SARS-CoV-2 infection rate [%]	cell count [%]	cell viability [%]	morphology score	phospholipidosis EC50 [µM]
A549-ACE2 [13], 24 h	–	–	–	–	1.57
A549-ACE2 [13], 48 h	–	–	–	–	2.78
A549-ACE2 [13], 72 h	–	–	–	–	3.29
Caco-2 [14], 1 nM	–	–	108	–	–
Caco-2 [14], 10 nM	–	–	103	–	–
Caco-2 [14], 100 nM	–	–	102	–	–
Caco-2 [14], 1000 nM	–	–	105	–	–
Caco-2 [14], 10000 nM	–	–	69.3	–	–
Calu-3 [18], 1 nM	–	–	110	–	–
Calu-3 [18], 10 nM	–	–	90.2	–	–
Calu-3 [18], 100 nM	–	–	105	–	–
Calu-3 [18], 1000 nM	–	–	103	–	–
Calu-3 [18], 10000 nM	–	–	76.9	–	–
HepG2 [17], 1 nM	–	–	98.1	–	–
HepG2 [17], 10 nM	–	–	89.9	–	–
HepG2 [17], 100 nM	–	–	98.9	–	–
HepG2 [17], 1000 nM	–	–	89.7	–	–
HepG2 [17], 10000 nM	–	–	10.8	–	–
U2OS [16], 1 nM	–	–	106	–	–
U2OS [16], 10 nM	–	–	99.6	–	–
U2OS [16], 100 nM	–	–	107	–	–
U2OS [16], 1000 nM	–	–	99.5	–	–
U2OS [16], 10000 nM	–	–	73	–	–
Vero E6 [15], 1 nM	–	–	101	–	–
Vero E6 [15], 10 nM	–	–	106	–	–
Vero E6 [15], 100 nM	–	–	102	–	–
Vero E6 [15], 1000 nM	–	–	103	–	–
Vero E6 [15], 10000 nM	–	–	78.7	–	–
[1], 0.1 µM	–	98	–	–	–
[1], 0.3 µM	–	98	–	–	–
[1], 1 µM	–	108	–	–	–
[1], 3 µM	–	122	–	–	–
[11], 0.1 µM	–	–	–	-0.29	–
[11], 0.3 µM	–	–	–	0.2	–
[11], 1 µM	–	–	–	0.27	–
[11], 3 µM	–	–	–	0.84	–
[12], 0.1 µM	107	–	–	–	–
[12], 0.3 µM	94	–	–	–	–
[12], 1 µM	89	–	–	–	–
[12], 3 µM	32	–	–	–	–

Details	drug sensitivity score	relative viability EC50 [µM]
Caco-2 [6]	1.1	–
Calu-3 [4]	–	> 10
Calu-3 [10]	0.6	–
HepG2 [3]	–	2.21
HepG2 [9]	6.7	–
U2OS [8]	1.1	–
Vero E6 [2]	–	> 10
Vero E6 [7]	0.5	–

drug-induced phospholipidosis [%], A549-ACE2 [5]
Details	0.3 µM	0.833333 µM	3.33333 µM	6.66667 µM	10 µM
24 h	2.22	17.4	75	83.8	88.4
48 h	3.66	13	67.8	86.7	102
72 h	5.04	11.3	58.8	87.9	97.7

CC(C)COc1ccc(CNC(=O)N(Cc2ccc(F)cc2)C2CCN(C)CC2)cc1 [pimavanserin]
Details	SARS-CoV-2 infection rate, [12] [%]	cell count, [1] [%]	cell viability, Caco-2 [14] [%]	cell viability, Calu-3 [18] [%]	cell viability, HepG2 [17] [%]	cell viability, U2OS [16] [%]	cell viability, Vero E6 [15] [%]	morphology score, [11]
1 nM	–	–	105	100	102	99.4	101	–
10 nM	–	–	95.7	97	104	99.2	101	–
100 nM	–	–	105	95.1	104	92.2	108	–
0.3 µM	100	101	–	–	–	–	–	-0.07
1000 nM	–	–	110	95.2	103	99.2	99.4	–
10000 nM	–	–	85.7	86.2	86.2	92	98.4	–

Details	drug sensitivity score	relative viability EC50 [µM]
Caco-2 [6]	0.1	–
Caco-2 [19]	–	> 10
Calu-3 [4]	–	> 10
Calu-3 [10]	0.1	–
HepG2 [3]	–	> 10
HepG2 [9]	0.1	–
U2OS [8]	0	–
U2OS [20]	–	> 10
Vero E6 [2]	–	> 10
Vero E6 [7]	0	–

A549-ACE2 [5], 0.3 µM
Details	drug-induced phospholipidosis [%]
24 h	4.68
48 h	2.24
72 h	1.32

c1ccc2c(CCNc3ccc(Nc4ccncc4)cc3)c[nH]c2c1 [serdemetan]
Details	SARS-CoV-2 infection rate [%]	cell count [%]	cell viability [%]	morphology score	phospholipidosis EC50 [µM]
A549-ACE2 [13], 24 h	–	–	–	–	3.5
A549-ACE2 [13], 48 h	–	–	–	–	3.63
Caco-2 [14], 1 nM	–	–	94.1	–	–
Caco-2 [14], 10 nM	–	–	94.2	–	–
Caco-2 [14], 100 nM	–	–	99	–	–
Caco-2 [14], 1000 nM	–	–	92.1	–	–
Caco-2 [14], 10000 nM	–	–	82.8	–	–
Calu-3 [18], 1 nM	–	–	98.5	–	–
Calu-3 [18], 10 nM	–	–	92.3	–	–
Calu-3 [18], 100 nM	–	–	105	–	–
Calu-3 [18], 1000 nM	–	–	92.8	–	–
Calu-3 [18], 10000 nM	–	–	51.7	–	–
HepG2 [17], 1 nM	–	–	94.8	–	–
HepG2 [17], 10 nM	–	–	99.5	–	–
HepG2 [17], 100 nM	–	–	98.6	–	–
HepG2 [17], 1000 nM	–	–	85.7	–	–
HepG2 [17], 10000 nM	–	–	45.6	–	–
U2OS [16], 1 nM	–	–	98.7	–	–
U2OS [16], 10 nM	–	–	97.5	–	–
U2OS [16], 100 nM	–	–	100	–	–
U2OS [16], 1000 nM	–	–	100	–	–
U2OS [16], 10000 nM	–	–	52.1	–	–
Vero E6 [15], 1 nM	–	–	93.1	–	–
Vero E6 [15], 10 nM	–	–	101	–	–
Vero E6 [15], 100 nM	–	–	97.4	–	–
Vero E6 [15], 1000 nM	–	–	93.5	–	–
Vero E6 [15], 10000 nM	–	–	87.9	–	–
[1], 0.3 µM	–	102	–	–	–
[1], 3 µM	–	106	–	–	–
[1], 10 µM	–	115	–	–	–
[1], 30 µM	–	82	–	–	–
[11], 0.3 µM	–	–	–	-0.18	–
[11], 3 µM	–	–	–	0.58	–
[11], 10 µM	–	–	–	0.82	–
[11], 30 µM	–	–	–	0.17	–
[12], 0.3 µM	106	–	–	–	–
[12], 3 µM	72	–	–	–	–
[12], 10 µM	22	–	–	–	–
[12], 30 µM	43	–	–	–	–

Details	drug sensitivity score	relative viability EC50 [µM]
Caco-2 [6]	0.8	–
Caco-2 [19]	–	> 10
Calu-3 [10]	3.7	–
HepG2 [3]	–	1.51
HepG2 [9]	5.1	–
U2OS [8]	2.5	–
Vero E6 [2]	–	> 10
Vero E6 [7]	0.1	–

drug-induced phospholipidosis [%], A549-ACE2 [5]
Details	0.3 µM	0.833333 µM	3.33333 µM	6.66667 µM	10 µM	30 µM
24 h	0.45	0.3	12.7	59.1	43.6	17.2
48 h	-0.34	-2.16	8.14	56.1	35.4	–
72 h	-1.75	-1.63	6.6	–	–	–

CN(C)CCOc1ccc(/C(=C(/CCCl)c2ccccc2)c2ccccc2)cc1 [toremifene]
Details	SARS-CoV-2 infection rate [%]	cell count [%]	cell viability [%]	morphology score	phospholipidosis EC50 [µM]
A549-ACE2 [13], 24 h	–	–	–	–	15
A549-ACE2 [13], 48 h	–	–	–	–	1.48
A549-ACE2 [13], 72 h	–	–	–	–	1.65
Caco-2 [14], 1 nM	–	–	100	–	–
Caco-2 [14], 10 nM	–	–	98.1	–	–
Caco-2 [14], 100 nM	–	–	105	–	–
Caco-2 [14], 1000 nM	–	–	92.3	–	–
Caco-2 [14], 10000 nM	–	–	39.8	–	–
Calu-3 [18], 1 nM	–	–	90.6	–	–
Calu-3 [18], 10 nM	–	–	106	–	–
Calu-3 [18], 100 nM	–	–	104	–	–
Calu-3 [18], 1000 nM	–	–	93.1	–	–
Calu-3 [18], 10000 nM	–	–	15.8	–	–
HepG2 [17], 1 nM	–	–	105	–	–
HepG2 [17], 10 nM	–	–	82.5	–	–
HepG2 [17], 100 nM	–	–	104	–	–
HepG2 [17], 1000 nM	–	–	103	–	–
HepG2 [17], 10000 nM	–	–	29.9	–	–
U2OS [16], 1 nM	–	–	97.6	–	–
U2OS [16], 10 nM	–	–	94.9	–	–
U2OS [16], 100 nM	–	–	99.4	–	–
U2OS [16], 1000 nM	–	–	91.3	–	–
U2OS [16], 10000 nM	–	–	66.7	–	–
Vero E6 [15], 1 nM	–	–	98.4	–	–
Vero E6 [15], 10 nM	–	–	101	–	–
Vero E6 [15], 100 nM	–	–	90.4	–	–
Vero E6 [15], 1000 nM	–	–	95.3	–	–
Vero E6 [15], 10000 nM	–	–	53.6	–	–
[1], 0.1 µM	–	100	–	–	–
[1], 0.3 µM	–	107	–	–	–
[1], 1 µM	–	107	–	–	–
[1], 3 µM	–	127	–	–	–
[11], 0.1 µM	–	–	–	-0.1	–
[11], 0.3 µM	–	–	–	0.28	–
[11], 1 µM	–	–	–	0.36	–
[11], 3 µM	–	–	–	0.76	–
[12], 0.1 µM	105	–	–	–	–
[12], 0.3 µM	88	–	–	–	–
[12], 1 µM	89	–	–	–	–
[12], 3 µM	44	–	–	–	–

Details	drug sensitivity score	relative viability EC50 [µM]
Caco-2 [6]	4.6	–
Caco-2 [19]	–	2.13
Calu-3 [4]	–	2.5
Calu-3 [10]	5.7	–
HepG2 [3]	–	3.4
HepG2 [9]	3.6	–
U2OS [8]	2.8	–
Vero E6 [7]	3.2	–

drug-induced phospholipidosis [%], A549-ACE2 [5]
Details	0.3 µM	0.833333 µM	3.33333 µM	6.66667 µM	10 µM	30 µM
24 h	8.6	44.5	103	115	116	416
48 h	7.64	34.2	102	117	121	–
72 h	6.92	27.5	102	112	125	–
